Measured values taken from patent US11976075B2, “Inhibitors of the MYST family of lysine acetyl transferases” (Isosterix, Inc., priority 2022, dated 2024).
pIC50: −log10 of the molar value.

Target: T1, Recombinant KAT6A/MOZ (488-778) protein (Homo sapiens, UniProt Q92794)
T1 construct: Recombinant KAT6A/MOZ (488-778) protein (Active motif, Catalog #81223); purchased Active Motif 81223
Assay: Kat6a AlphaLISA Inhibition Screening Assay
Assay type: biochemical
Details: 10′ pre-incubation; Table 2; read-out: Kat6A biochemical assay: IC50
Protocol: The Kat6a inhibitory activity of test compounds was determined using an Alpha Screen-based detection method. The assay reactions were conducted in a volume of 10 μL in Alpha Plate, White 384 well plate (cat #6008280, Perkin Elmer). The enzymatic reactions were performed in assay buffer pH 8.0 (50 mM Tris-HCl, 0.1 mM EDTA, 0.01% Tween-20, 1 mM Dithiothreitol, 0.1% BSA (fatty acid free) and 330 nM TSA (Trichostatin A)). 10 μL reaction volume consisting of 25 nM of Recombinant KAT6A/MOZ (488-778) protein (Active motif, Catalog #81223), 400 nM Acetyl coenzyme A (Catalog #A2056, Sigma), 200 nM of Histone H3 peptide [(amino acids 1-21), biotin-labeled (BPS Biosciences, Catalog #52011,)] and a 10-point dose response curve for test/tool compounds were prepared. Enzyme and compounds solution were pre-incubated in assay plate for 60 or 10 min at room temperature then substrate and Acetyl coenzyme A solution were added to the plate. After addition, the plate was sealed with adhesive seals and incubated for 120 minutes at room temperature.
After 120 minutes of incubation, 5 μL (10 μg/mL) of AlphaLISA anti-acetyl-Lysine acceptor beads (Perkin Elmer, Catalog #AL143C) were added to the plate and it was incubated for 60 minutes at room temperature. Then 10 μL (10 μg/mL) of Alpha Streptavidin donor beads (Perkin Elmer, Catalog #6760002S) were added to the plate which was further incubated for 60 minutes at room temperature. After incubation, the alpha signal was recorded by using Perkin Elmer Envision multi-mode reader.
NA means the compound was not active at the concentration tested. […] NT means not tested.

T1 sequence (Q92794 488-778): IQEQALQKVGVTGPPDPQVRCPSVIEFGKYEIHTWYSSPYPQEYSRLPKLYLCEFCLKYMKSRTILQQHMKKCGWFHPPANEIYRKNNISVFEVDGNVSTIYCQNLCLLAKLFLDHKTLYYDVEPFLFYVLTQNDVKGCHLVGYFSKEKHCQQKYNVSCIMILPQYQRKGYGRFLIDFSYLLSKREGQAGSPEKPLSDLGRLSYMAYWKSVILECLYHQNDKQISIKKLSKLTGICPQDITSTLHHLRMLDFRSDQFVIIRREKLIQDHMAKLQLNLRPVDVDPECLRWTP

| Structure (SMILES) | pIC50 |
| --- | --- |
| C=CC(=O)NCc1ccnc(-c2cc(C)cc(C(=O)NNS(=O)(=O)c3ccccc3F)c2)c1 [compound 12] | ≥ 5.00 |
| C#CC(=O)NCc1ccnc(-c2cc(C)cc(C(=O)NNS(=O)(=O)c3ccccc3F)c2)c1 [compound 13] | ≥ 5.00 |

Same assay, conditions: 60′ pre-incubation; Table 2; read-out: Kat6A biochemical assay: IC50

| Structure (SMILES) | pIC50 |
| --- | --- |
| C=CS(=O)(=O)N1CCC(c2ccnc(-c3cc(C)cc(C(=O)NNS(=O)(=O)c4ccccc4F)c3)c2)CC1 [Synthetic Example 42, 2-fluoro-N′-(3-methyl-5-(4-(1-(vinylsulfonyl)piperidin-4-yl)pyridin-2-yl)benzoyl)benzenesulfonohydrazide] | ≥ 5.00 |
| C#CC(=O)N1C[C@H]2CN(Cc3cc(OC)c4c(NS(=O)(=O)c5ccccc5OC)noc4c3)C[C@H]2C1 [Synthetic Example 44, 2-methoxy-N-(4-methoxy-6-(((3aR,6aS)-5-propioloylhexahydropyrrolo[3,4-c]pyrrol-2(1H)-yl)methyl)benzo[d]isoxazol-3-yl)benzenesulfonamide] | ≥ 5.00 |
| C#CC(=O)N(C)Cc1cnn(Cc2cc(OC)c3c(NS(=O)(=O)c4ccccc4OC)noc3c2)c1 [Synthetic Example 45, N-((1-((4-methoxy-3-((2-methoxyphenyl)sulfonamido)benzo[d]isoxazol-6-yl)methyl)-1H-pyrazol-4-yl)methyl)-N-methylpropiolamide] | ≥ 5.00 |
| C#CC(=O)NCc1cnn(Cc2cc(OC)c3c(NS(=O)(=O)c4ccc(C(=O)NC)cc4OC)noc3c2)c1 [Synthetic Example 46, 3-methoxy-4-(N-(4-methoxy-6-((4-(propiolamidomethyl)-1H-pyrazol-1-yl)methyl)benzo[d]isoxazol-3-yl)sulfamoyl)-N-methylbenzamide] | ≥ 5.00 |
| C=CC(=O)N(C)Cc1cnn(Cc2cc(OC)c3c(NS(=O)(=O)c4ccccc4OC)noc3c2)c1 [Synthetic Example 47, N-((1-((4-methoxy-3-((2-methoxyphenyl)sulfonamido)benzo[d]isoxazol-6-yl)methyl)-1H-pyrazol-4-yl)methyl)-N-methylacrylamide] | ≥ 5.00 |
| C#CC(=O)NC1CCN(Cc2cc(OC)c3c(NS(=O)(=O)c4ccccc4OC)noc3c2)C1 (centres unmarked) [Synthetic Example 48, N-(1-((4-methoxy-3-((2-methoxyphenyl)sulfonamido)benzo[d]isoxazol-6-yl)methyl)pyrrolidin-3-yl)propiolamide] | ≥ 5.00 |
| C=CC(=O)NC1CCN(Cc2cc(OC)c3c(NS(=O)(=O)c4ccccc4OC)noc3c2)CC1 [Synthetic Example 49, N-(1-((4-methoxy-3-((2-methoxyphenyl)sulfonamido)benzo[d]isoxazol-6-yl)methyl)piperidin-4-yl)acrylamide] | ≥ 5.00 |
| C=CC(=O)N1C[C@H]2CN(Cc3cc(OC)c4c(NS(=O)(=O)c5ccccc5OC)noc4c3)C[C@H]2C1 [Synthetic Example 50, N-(6-(((3aR,6aS)-5-acryloylhexahydropyrrolo[3,4-c]pyrrol-2(1H)-yl)methyl)-4-methoxybenzo[d]isoxazol-3-yl)-2-methoxybenzenesulfonamide] | ≥ 5.00 |
| C=CC(=O)NCc1cnn(Cc2cc(OC)c3c(NS(=O)(=O)c4ccccc4OC)noc3c2)c1 [Synthetic Example 51, N-((1-((4-methoxy-3-((2-methoxyphenyl)sulfonamido)benzo[d]isoxazol-6-yl)methyl)-1H-pyrazol-4-yl)methyl)acrylamide] | ≥ 5.00 |
| C#CC(=O)NCc1cnn(Cc2cc(OC)c3c(NS(=O)(=O)c4cccc(C(=O)NC)c4)noc3c2)c1 [Synthetic Example 52, 3-(N-(4-methoxy-6-((4-(propiolamidomethyl)-1H-pyrazol-1-yl)methyl)benzo[d]isoxazol-3-yl)sulfonyl)-N-methylbenzamide] | ≥ 5.00 |
| COc1ccccc1S(=O)(=O)Nc1noc2cc(Cn3cc(CNC(=O)C#CCO)cn3)cc(OC)c12 [Synthetic Example 53, 4-hydroxy-N-((1-((4-methoxy-3-((2-methoxyphenyl)sulfonamido)benzo[d]isoxazol-6-yl)methyl)-1H-pyrazol-4-yl)methyl) but-2-ynamide] | ≥ 5.00 |
| COC/C=C/C(=O)NCc1cnn(Cc2cc(OC)c3c(NS(=O)(=O)c4ccccc4OC)noc3c2)c1 [Synthetic Example 54, (E)-4-methoxy-N-((1-((4-methoxy-3-((2-methoxyphenyl)sulfonamido)benzo[d]isoxazol-6-yl)methyl)-1H-pyrazol-4-yl)methyl)but-2-enamide] | ≥ 5.00 |
| C#CC(=O)NCc1ccnc(-c2cc(C)cc(C(=O)NNS(=O)(=O)c3cccc(C(=O)NC)c3)c2)c1 [Synthetic Example 55, N-methyl-3-[[[3-methyl-5-[4-[(prop-2-ynoylamino)methyl]-2-pyridyl]benzoyl]amino]sulfamoyl] benzamide] | ≥ 5.00 |
| C=CC(=O)N1CCN(c2cccc(-c3cc(OC)c4c(NS(=O)(=O)c5c(OC)cccc5OC)noc4c3)c2)CC1 [Synthetic Example 56, N-(6-(3-(4-acryloylpiperazin-1-yl)phenyl)-4-methoxybenzo[d]isoxazol-3-yl)-2,6-dimethoxybenzenesulfonamide] | ≥ 5.00 |
| CC#CC(=O)NCc1cnn(Cc2cc(OC)c3c(NS(=O)(=O)c4ccccc4OC)noc3c2)c1 [Synthetic Example 57, N-[[1-[[4-methoxy-3-[(2-methoxyphenyl)sulfonylamino]-1,2-benzoxazol-6-yl]methyl]pyrazol-4-yl]methyl] but-2-ynamide] | ≥ 5.00 |
| C=CC(=O)N1CCN(c2ccccc2-c2cc(OC)c3c(NS(=O)(=O)c4c(OC)cccc4OC)noc3c2)CC1 [Synthetic Example 58, N-(6-(2-(4-acryloylpiperazin-1-yl)phenyl)-4-methoxybenzo[d]isoxazol-3-yl)-2,6-dimethoxybenzenesulfonamide] | ≥ 5.00 |
| C=CS(=O)(=O)N1C[C@H]2CN(Cc3cc(OC)c4c(NS(=O)(=O)c5ccccc5OC)noc4c3)C[C@H]2C1 [Synthetic Example 59] | ≥ 5.00 |
| C#CC(=O)NCC(=O)NCc1cnn(Cc2cc(OC)c3c(NS(=O)(=O)c4ccccc4OC)noc3c2)c1 [Synthetic Example 60, N-(2-(((1-((4-methoxy-3-((2-methoxyphenyl)sulfonamido)benzo[d]isoxazol-6-yl)methyl)-1H-pyrazol-4-yl)methyl)amino)-2-oxoethyl)propiolamide] | ≥ 5.00 |
| C=CC(=O)NCC(=O)NCc1cnn(Cc2cc(OC)c3c(NS(=O)(=O)c4ccccc4OC)noc3c2)c1 [Synthetic Example 61, N-[2-[[1-[[4-methoxy-3-[(2-methoxyphenyl)sulfonylamino]-1,2-benzoxazol-6-yl]methyl]pyrazol-4-yl]methylamino]-2-oxo-ethyl]prop-2-enamide] | ≥ 5.00 |
| COc1ccccc1S(=O)(=O)Nc1noc2cc(Cn3cc(C(=O)NCC#N)cn3)cc(OC)c12 [Synthetic Example 62, N-(cyanomethyl)-1-((4-methoxy-3-((2-methoxyphenyl)sulfonamido)benzo[d]isoxazol-6-yl)methyl)-1H-pyrazole-4-carboxamide] | ≥ 5.00 |
| COc1ccccc1S(=O)(=O)Nc1noc2cc(CN3CCC(C(=O)NCC#N)CC3)cc(OC)c12 [Synthetic Example 63, N-(cyanomethyl)-1-((4-methoxy-3-((2-methoxyphenyl)sulfonamido)benzo[d]isoxazol-6-yl)methyl)piperidine-4-carboxamide] | < 5.00 |
| C#CC(=O)NC1CCN(Cc2cc(OC)c3c(NS(=O)(=O)c4ccccc4OC)noc3c2)CC1 [Synthetic Example 64] | ≥ 5.00 |
| C#CC(=O)NCc1cnn(Cc2cc(OC)c3c(NS(=O)(=O)c4ccc(C(=O)O)cc4OC)noc3c2)c1 [Synthetic Example 65, 3-methoxy-4-(N-(4-methoxy-6-((4-(propiolamidomethyl)-1H-pyrazol-1-yl)methyl)benzo[d]isoxazol-3-yl)sulfamoyl)benzoic acid] | ≥ 5.00 |
| C#CC(=O)NCc1cnn(Cc2cc(OC)n3c(NS(=O)(=O)c4ccccc4OC)nnc3c2)c1 [Synthetic Example 66, N-((1-((5-methoxy-3-((2-methoxyphenyl)sulfonamido)-[1,2,4]triazolo[4,3-a]pyridin-7-yl)methyl)-1H-pyrazol-4-yl)methyl)propiolamide] | ≥ 5.00 |
| COc1ccccc1S(=O)(=O)Nc1noc2cc(CN3CCC(C(=O)NCC#N)C3)cc(OC)c12 (centres unmarked) [Synthetic Example 67, N-(cyanomethyl)-1-((4-methoxy-3-((2-methoxyphenyl)sulfonamido)benzo[d]isoxazol-6-yl)methyl) pyrrolidine-3-carboxamide] | < 5.00 |
| C#CC(=O)NCc1cnn(Cc2cc(OC)c3c(NS(=O)(=O)CC4CCCCC4)noc3c2)c1 [compound 5] | ≥ 5.00 |
| C#CC(=O)NCc1cnn(Cc2cc(OC)c3c(NS(=O)(=O)c4ccccc4C(=O)NC)noc3c2)c1 [compound 68, 2-(N-(4-methoxy-6-((4-(propiolamidomethyl)-1H-pyrazol-1-yl)methyl)benzo[d]isoxazol-3-yl)sulfamoyl)-N-methylbenzamide] | ≥ 5.00 |
